Results published in ChEMBL document CHEMBL1137281, “Synthesis and biological evaluation of copper (II) complexes of sterically hindered o-aminophenol derivatives as antimicrobial agents” (2006).
In brackets after ≈: the same amount, converted by molar mass.

What was measured:
Assay type in all cases: functional
[1] = test system: Escherichia coli; assay: Antibacterial activity against Escherichia coli
[2] = test system: Papiliotrema laurentii; assay: Antifungal activity against Cryptococcus laurentii
[3] = test system: Serratia marcescens; assay: Antimicrobial activity against Serratia marcescens
[4] = test system: Lipomyces lipofer; assay: Antimicrobial activity against Lipomyces lipofer
[5] = test system: Candida boidinii; assay: Antimicrobial activity against Candida boidinii
[6] = test system: Staphylococcus saprophyticus; assay: Antibacterial activity against Staphylococcus saprophyticus
[7] = test system: Komagataella pastoris; assay: Antimicrobial activity against Pichia pastoris
[8] = test system: Rhodotorula mucilaginosa; assay: Antimicrobial activity against Rhodotorula rubra
[9] = test system: Candida albicans; assay: Antimicrobial activity against Candida albicans
[10] = test system: Cyberlindnera jadinii; assay: Antimicrobial activity against Candida utilis; settings: Williopsis jadinii
[11] = test system: Aspergillus niger; assay: Antifungal activity against Aspergillus niger
[12] = test system: Pseudomonas aeruginosa; assay: Antimicrobial activity against Pseudomonas aeruginosa
[13] = test system: Saccharomyces cerevisiae; assay: Antimicrobial activity against Saccharomyces cerevisiae
[14] = Antimicrobial activity against Hansenula sp.; settings: Pichia
[15] = test system: Micrococcus luteus; assay: Antimicrobial activity against Sarcina lutea
[16] = test system: Bacillus subtilis; assay: Antibacterial activity against Bacillus subtilis

| MIC [1] [µg/mL] | MIC [2] [µg/mL] | MIC [3] [µg/mL] | MIC [4] [µg/mL] | MIC [5] [µg/mL] | MIC [6] [µg/mL] | MIC [7] [µg/mL] | MIC [8] [µg/mL] | MIC [9] [µg/mL] | MIC [10] [µg/mL] | MIC [11] [µg/mL] | MIC [12] [µg/mL] | MIC [13] [µg/mL] | MIC [14] [µg/mL] | MIC [15] [µg/mL] | MIC [16] [µg/mL] | SMILES |
| --- | --- | --- | --- | --- | --- | --- | --- | --- | --- | --- | --- | --- | --- | --- | --- | --- |
| > 50 | > 50 | > 50 | > 50 | > 50 | > 50 | > 50 | > 50 | > 50 | > 50 | > 50 | > 50 | > 50 | > 50 | > 50 | > 50 | CC(C)(C)c1cc(Nc2ccccc2)c(O)c(C(C)(C)C)c1 |
| > 50 | 6.25 (≈ 28.2 µM) | > 50 | 6.25 (≈ 28.2 µM) | > 50 | 12.5 (≈ 56.5 µM) | 6.25 (≈ 28.2 µM) | 50 (≈ 226 µM) | > 50 | > 50 | > 50 | > 50 | 6.25 (≈ 28.2 µM) | 6.25 (≈ 28.2 µM) | 12.5 (≈ 56.5 µM) | 25 (≈ 113 µM) | CC(C)(C)c1cc(N)c(O)c(C(C)(C)C)c1 |

| SMILES | MIC [1] [µg/mL] | MIC [2] [µg/mL] | MIC [3] [µg/mL] | MIC [4] [µg/mL] | MIC [5] [µg/mL] | MIC [6] [µg/mL] | MIC [7] [µg/mL] | MIC [8] [µg/mL] | MIC [9] [µg/mL] | MIC [10] [µg/mL] | MIC [11] [µg/mL] | MIC [12] [µg/mL] | MIC [13] [µg/mL] | MIC [14] [µg/mL] | MIC [15] [µg/mL] | MIC [16] [µg/mL] |
| --- | --- | --- | --- | --- | --- | --- | --- | --- | --- | --- | --- | --- | --- | --- | --- | --- |
| Nc1ccccc1O [QUESTIOMYCIN B] | > 50 |  | > 50 |  | > 50 | > 50 | > 50 |  | > 50 | > 50 | > 50 | > 50 | > 50 | > 50 |  | > 25 |
